Reference: PMC4915685 (PLoS ONE, 2016)

Key:
T2DM patients = details: cited from earlier work
[1] = molecular target: T1, prolyl endopeptidase (PEP) (Rattus norvegicus, UniProt O70196); assay: PEP inhibition assay; format: biochemical
T1 construct: were prepared from rat kidney and brain, respectively; from tissue; host or cells: rat brain
T1 sequence (O70196 1-710): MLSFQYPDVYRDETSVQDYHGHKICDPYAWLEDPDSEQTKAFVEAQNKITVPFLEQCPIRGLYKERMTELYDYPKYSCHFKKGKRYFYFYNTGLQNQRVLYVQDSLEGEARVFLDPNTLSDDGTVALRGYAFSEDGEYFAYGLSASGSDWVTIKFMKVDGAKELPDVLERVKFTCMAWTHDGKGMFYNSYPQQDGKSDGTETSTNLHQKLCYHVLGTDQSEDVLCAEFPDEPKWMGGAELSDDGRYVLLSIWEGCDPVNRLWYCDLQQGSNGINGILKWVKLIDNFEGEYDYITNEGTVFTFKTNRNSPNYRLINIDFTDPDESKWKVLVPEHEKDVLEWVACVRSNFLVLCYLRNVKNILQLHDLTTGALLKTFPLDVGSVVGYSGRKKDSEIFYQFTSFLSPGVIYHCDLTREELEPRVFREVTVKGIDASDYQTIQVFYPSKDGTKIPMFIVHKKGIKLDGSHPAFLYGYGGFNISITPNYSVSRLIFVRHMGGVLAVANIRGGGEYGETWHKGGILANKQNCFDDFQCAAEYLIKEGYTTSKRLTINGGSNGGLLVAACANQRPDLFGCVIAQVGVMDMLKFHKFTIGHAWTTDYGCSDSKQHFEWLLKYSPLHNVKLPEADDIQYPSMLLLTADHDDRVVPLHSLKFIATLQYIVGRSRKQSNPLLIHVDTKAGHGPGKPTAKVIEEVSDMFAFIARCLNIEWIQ

[2] = set-up: method as in earlier work; details: 100 mg single dose, 168 hours after administration, Japanese healthy volunteers; cited from earlier work
[3] = molecular target: T2, dog plasma DPP-4 activity (Canis lupus familiaris, UniProt A0A8I3Q2I8); assay: Inhibition of plasma DPP-4 activity, dog plasma (GP-pNA); format: biochemical
T2 construct: tissue Kitayama Labes Co., Ltd. (animals); host or cells: beagle dog plasma
Description: Male Sprague–Dawley rats (7 weeks old, n = 30) and male beagle dogs (2–5 years old, n = 3) were purchased from CLEA Japan (Tokyo, Japan) and Kitayama Labes Co., Ltd. (Nagano, Japan), respectively. […] Rat blood samples were taken from abdominal vein under ether inhalation anesthesia in anesthetized rats before euthanasia by exsanguination. Dog blood samples were collected from anterior limb veins in conscious dogs that were restrained in a retainer. […] Plasma samples were prepared and stored at -80°C before use.

human plasma protein = assay: Plasma protein binding; format: in vitro ADME; details: over the range of 0.1 to 10 μg/mL (unpublished results)

T2 sequence (A0A8I3Q2I8 1-765): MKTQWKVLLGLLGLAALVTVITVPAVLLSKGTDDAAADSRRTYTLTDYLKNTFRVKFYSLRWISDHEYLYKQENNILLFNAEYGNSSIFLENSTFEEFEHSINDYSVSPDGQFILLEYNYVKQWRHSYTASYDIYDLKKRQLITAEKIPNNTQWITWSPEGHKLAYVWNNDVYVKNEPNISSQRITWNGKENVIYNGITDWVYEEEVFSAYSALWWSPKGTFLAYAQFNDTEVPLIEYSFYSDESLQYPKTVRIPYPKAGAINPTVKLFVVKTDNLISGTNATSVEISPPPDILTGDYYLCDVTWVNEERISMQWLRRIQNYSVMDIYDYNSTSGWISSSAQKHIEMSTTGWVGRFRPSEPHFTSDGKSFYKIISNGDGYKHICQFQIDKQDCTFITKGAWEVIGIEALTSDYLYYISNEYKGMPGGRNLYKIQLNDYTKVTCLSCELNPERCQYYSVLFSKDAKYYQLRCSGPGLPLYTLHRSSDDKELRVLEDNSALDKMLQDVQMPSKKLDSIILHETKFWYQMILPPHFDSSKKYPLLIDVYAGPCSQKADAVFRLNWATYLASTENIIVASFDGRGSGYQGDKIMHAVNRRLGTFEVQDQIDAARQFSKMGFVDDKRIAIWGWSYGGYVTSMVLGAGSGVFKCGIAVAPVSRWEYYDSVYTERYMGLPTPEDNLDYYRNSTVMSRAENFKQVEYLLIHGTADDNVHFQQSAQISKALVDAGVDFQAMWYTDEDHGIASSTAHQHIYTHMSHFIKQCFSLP

Cn1c(=O)cc(N2CCC[C@@H](N)C2)n(Cc2cc(F)ccc2C#N)c1=O [trelagliptin, 2-[6-(3(R)-aminopiperidin-1-yl)-3-methyl-2,4-dioxo-3,4-dihydro-2H-pyrimidin-1-ylmethyl]-4-fluorobenzonitrile]
safety in clinical studies (T2DM patients; clinical studies): no major safety concerns
efficacy in terms of reduction of HbA1c versus alogliptin 25 mg daily dosing (T2DM patients; trelagliptin 100 mg weekly dosing, T2DM patients): non-inferior
IC50 [1]: > 100000 nM
plasma trelagliptin concentration [mean (SD)] [2]: 2.12 (0.679) ng/mL
IC50 [3]: 6.2 nM
binding to human plasma protein (human plasma protein): 22.1–27.6%

Cn1c(=O)cc(N2CCC[C@@H](N)C2)n(Cc2ccccc2C#N)c1=O [alogliptin, 2-[6-(3(R)-aminopiperidin-1-yl)-3-methyl-2,4-dioxo-3,4-dihydro-2H-pyrimidin-1-ylmethyl]benzonitrile, reference compound]
binding to human plasma protein (human plasma protein): 28.2–32.3%
